# Calls of active or inactive are those of the source.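 How the source made its calls: active means signal falls with dose and the fitted half-maximal concentration is at or below twice the top valid tested dose; inconclusive means flat curve with 30 to 70% inhibition, or poor fit; inactive means wrong direction, flat within 30%, or potency beyond limit.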
# Target: Golgi-associated PDZ and coiled-coil motif-containing protein (Homo sapiens) (UniProt Q9HD26)
# Assay: CAL PDZ domain peptide-binding inhibitors, dose response, biochemical, fluorescence polarization, untagged CAL PDZ, cherry-pick (AID 602267)
# Conditions: purified CAL PDZ, TMR-peptide fluorescence polarization, 1 h; at 16 µM (top of the series)
row,SMILES,"activity change, negative = inhibition"
1,COc1cc(C2NC(=O)NC(C)=C2C(=O)OC2CCCCC2)cc(Br)c1O (stereo not drawn),inactive
2,O=c1[nH]c(CN2CC=C(c3ccccc3)CC2)nc2scc(-c3ccccc3)c12,inactive

# Same assay, conditions: purified CAL PDZ, TMR-peptide fluorescence polarization, 1 h; at 50 µM (top of the series)
row,SMILES,"activity change, negative = inhibition"
1,CC(C)OCCCNC(=O)C1CC(=O)N(CCc2ccc(F)cc2)C1 (stereo not drawn),inactive
2,CN(CC1CCCO1)S(=O)(=O)c1ccc(C(=O)Nc2ccc([N+](=O)[O-])cc2)cc1 (stereo not drawn),inactive
3,CN(C)S(=O)(=O)c1ccc(Cl)c(NC(=O)CSc2nnnn2-c2ccc(O)cc2)c1,inactive
4,CN(C)c1ccc(C=c2c3cc(O)ccc3n3c2cc(-c2ccccc2)[n+]3C)cc1,inactive
5,Cn1c(=O)c2c(ncn2CC(=O)Nc2nc(-c3ccccc3Cl)cs2)n(C)c1=O,inactive
6,CCCn1cnc2c(SCCc3ccccc3)nc(N)nc21,inactive
7,O=[N+]([O-])c1ccccc1/C=N/Nc1nc(N2CCCC2)nc(N2CCCC2)n1,inactive
8,COc1cc(C(=O)ON=C2C(C)=CC(=O)C=C2C)cc(OC)c1OC,inactive
9,Cc1nn2c3ccccc3nc2c2ccccc12,inactive
10,CCc1nnc(NS(=O)(=O)c2ccc(NC(=O)CCC(=O)O)cc2)s1,inactive
11,CC(C)=Cc1oc2ccc([N+](=O)[O-])cc2c1N1CCOCC1,inactive
12,O=C(NCc1cccnc1)c1ccc(Cn2c(=S)[nH]c3ccc(Br)cc3c2=O)cc1,inactive
13,Cc1c(NC(=O)CN2CCC(C(N)=O)CC2)cccc1[N+](=O)[O-],inactive
14,O=C(O)CC1(CC(=O)Nc2ccc(Br)cc2)CCCCC1,inactive
15,Cc1ccc(-c2nc3ccccc3c(=O)o2)cc1,inactive
16,C/C(=N/N1CCN(c2ccccn2)CC1)c1ccc([N+](=O)[O-])cc1,inactive
17,CC12CNCC(C)(CN(C3(O)C(=O)Nc4ccc(Br)cc43)C1)C2=O (stereo not drawn),inactive
18,CCC(C)(C)NC(=O)CSc1nc(Cc2ccccc2)nc2ccccc12,inactive
19,COc1ccc(C(=O)c2ccc(C)cc2)c(OC)c1OC,inactive
20,COC(=O)N/N=C/c1sc(N2CCCCC2)nc1-c1cccs1,inactive
21,Cc1cccc(C(=O)Nc2nnc(COc3ccccc3)s2)c1,inactive

row,SMILES,"activity change, negative = inhibition"
1,COCc1cc(C)nc(SCc2ccccc2)c1C#N,inactive
2,O=C(O)c1ccc(S(=O)(=O)c2ccc3c(c2)C(=O)N(c2ccccc2[N+](=O)[O-])C3=O)cc1,inactive
3,CC1CCCC(C)N1/N=C/c1ccc(N(C)C)cc1 (stereo not drawn),inactive
4,Oc1ccc(/C=N\Nc2nncc(-c3ccccc3)n2)cc1,inactive
5,CCn1c(=O)c(C(C)=O)c(O)c2ccccc21,inactive
6,CC(C)n1cc(C(=O)N2CCCC(N3CCN(c4ccc(F)cc4)CC3)C2)cn1 (stereo not drawn),inactive
7,CCOc1ccc(C(=O)NC2CC3CCCC(C2)N3Cc2ccccc2)cc1 (stereo not drawn),inactive
8,COc1ccc(C(=O)NC2(C(F)(F)F)C(=O)Nc3c2c(=O)[nH]c(=O)n3CCc2ccc(OC)c(OC)c2)cc1 (stereo not drawn),inactive
9,O=C(NCc1ccccc1Cl)C1CC(=O)N(Cc2ccccc2)C1 (stereo not drawn),inactive
10,Cc1nc(N)c(CC(Br)CBr)c(Cl)n1 (stereo not drawn),inactive
11,CC1CCC(NC(=O)c2ccc3c(c2)S(=O)(=O)c2ccccc2C3=O)CC1 (stereo not drawn),inactive
12,O=C(CNCc1ccccc1)Nc1ccc(F)cc1,inactive
13,COc1ccc(/C=N/N2CCN(c3ccccc3OC)CC2)cc1Br,inactive
14,NC(=O)c1cc2ccccc2o/c1=N\NC(=O)c1ccncc1,inactive
15,O=C1CSC(=Nc2ccccc2Cl)N1,inactive
16,O=C(Nc1cccc(F)c1)c1ccco1,inactive
17,CCCC(=O)OCC(=O)Nc1ccccc1C#N,inactive
18,C/C(=N\NC(=O)C(O)c1ccccc1)c1ccc(Cl)s1 (stereo not drawn),inactive
19,COc1cccc(N2CCN(C(=O)c3ccc(-c4ccccc4)cc3)CC2)c1,inactive
20,Cc1ccc2nc(-c3cccc(Br)c3)cc(C(=O)NC3=NCCS3)c2c1,inactive
21,CCOC(=O)NC(=O)COC(=O)CCCSc1nc2ccccc2s1,inactive

row,SMILES,"activity change, negative = inhibition"
1,CC(C)OC(=O)C1CC(C)(O)C(=O)C(C(=O)OC(C)C)C1c1ccc([N+](=O)[O-])cc1 (stereo not drawn),inactive
2,O=C(c1ccccc1Cl)N(Cc1ccc(Cl)c(Cl)c1)N1C(=O)CCCC1=O,inactive
3,COCCOC(=O)c1c(C)oc2ccc(OS(C)(=O)=O)cc12,inactive
4,CC1Cc2ccccc2N1C(=O)CNc1ccccc1N1CCCCC1 (stereo not drawn),inactive
5,COc1ccc(OC)c(S(=O)(=O)NCCCn2ccnc2)c1,inactive
6,O=C1C=C(c2ccccc2)C(c2ccccc2)C1 (stereo not drawn),inactive
7,COc1ccccc1C(=O)Nc1ccc2c(c1)CN(C(=O)CSC)CC2,inactive
8,Cc1ccc(S(=O)(=O)N2CCN(C(=O)c3cc(=O)c4ccccc4o3)CC2)cc1,inactive
9,O=C(CCC(=O)N1CCN(c2ccccc2F)CC1)N1CCN(c2ccccc2)CC1,inactive
10,COc1cc(C)cc(CN2CC=C(c3ccccc3)CC2)c1O,inactive
11,CC(c1ccccc1)N1CCN(C(=O)CCl)CC1 (stereo not drawn),inactive
12,O=C(COC(=O)c1ccccc1C(=O)N1CCN(c2ccccc2)CC1)NCc1ccccc1,inactive
13,C=CCOC(=O)C1=C(C)Nc2nc3ccccc3n2C1c1ccncc1 (stereo not drawn),inactive
14,CCOc1ccccc1N(CC(=O)Nc1cccc2ccccc12)S(C)(=O)=O,inactive
15,CC(CCCC(C)(C)O)NC(=O)c1ccc(OC2CCN(C(=O)C3CC3)CC2)cc1 (stereo not drawn),inactive
16,CCC(=O)N1CCC(C(N)=O)(N2CCCCC2)CC1,inactive
17,COc1ccc(C(=O)Nc2ccc(S(=O)(=O)N3CCCC3)cc2)cc1[N+](=O)[O-],inactive
18,COn1c(SCc2ccccc2)nc2ccccc2c1=O,inactive
19,Cc1ccc(CN(Cc2cccnc2)C(=S)Nc2cccc(Cl)c2C)cc1,inactive
20,CCN(CCCn1c(=S)[nH]c2ccc(N3CCOCC3)cc2c1=O)c1ccccc1,inactive
21,CCc1nc2ccccc2c(C(=O)Oc2cccc3cccnc23)c1C,inactive

row,SMILES,"activity change, negative = inhibition"
1,COc1ccccc1NC(=O)N(c1c(N)n(Cc2ccccc2)c(=O)[nH]c1=O)C1CCCC1,inactive
2,Nc1ncnc2c1C(c1ccccc1)c1c(ccc3ccccc13)O2 (stereo not drawn),inactive
3,O=C(NC1CCCN(Cc2ccc(Cl)cc2)C1)c1cccc(N2CCCC2=O)c1 (stereo not drawn),inactive
4,COc1ccc(CN2CN(C3CCCC3)CSC2=S)cc1,inactive
5,O=C1CC(c2ccccc2)=C(c2ccccc2)C1,inactive
6,CC1CCC(NC(=O)C2CCN(c3cnccn3)CC2)CC1 (stereo not drawn),inactive
7,Cc1ccc(NC(=O)CN(C)CC(=O)Nc2cccc(F)c2)cc1S(=O)(=O)N1CCCCCC1,inactive
8,CC(C)(C)c1nn(-c2ccccc2)c2[nH]c(=O)c(C=O)cc12,inactive
9,O=C(Nc1nc2ccccc2[nH]1)c1cc2ccccc2o1,inactive
10,CCN(CC)S(=O)(=O)c1ccc2nc(NC(=O)c3ccco3)sc2c1,inactive
11,O=C(c1ccc(F)cc1Cl)N1CCC2(CC1)OCCO2,inactive
12,CN(C)C1(CNC(=O)C2CCC(=O)N(CCc3ccc(Cl)cc3)C2)CCCCC1 (stereo not drawn),inactive
13,O=C(/C=C/c1cccs1)Nc1scc(-c2ccccc2)c1C(=O)O,inactive
14,O=C(Cc1ccccc1)NN=C1CCCC1,inactive
15,CN1CC(=O)N(CC(=O)Nc2ccc(Br)cc2F)C1=O,inactive
16,CN=c1scc(C)n1/N=C/c1cc(Br)c(O)c(Br)c1,inactive
17,Cc1ccc(CN(C(=O)c2ccco2)C(C(=O)NC2CCCC2)c2cccnc2)cc1 (stereo not drawn),inactive
18,COc1ccc(NC(=O)c2cnn(-c3ccccc3)c2C)c(OC)c1,inactive

# Reference: PubChem BioAssay AID602267 (Broad Institute, 2012)
